One may read the IC50 as the concentration needed to halve the response being measured.

Results on 27 molecules are retold here after patent US20130116231A1, “TYROSINE KINASE INHIBITORS” (Merck Sharp & Dohme Corp., priority 2010, published 2013).

The target of this experiment is T1, human c-Met (Homo sapiens, UniProt P08581).
T1 construct: Recombinant GST-tagged cytosolic domains of human c-Met; 6xHis; made in house; host or cells: Sf9 or Sf21 insect cells (baculovirus)
T1 sequence (P08581 956-1390 limits assumed): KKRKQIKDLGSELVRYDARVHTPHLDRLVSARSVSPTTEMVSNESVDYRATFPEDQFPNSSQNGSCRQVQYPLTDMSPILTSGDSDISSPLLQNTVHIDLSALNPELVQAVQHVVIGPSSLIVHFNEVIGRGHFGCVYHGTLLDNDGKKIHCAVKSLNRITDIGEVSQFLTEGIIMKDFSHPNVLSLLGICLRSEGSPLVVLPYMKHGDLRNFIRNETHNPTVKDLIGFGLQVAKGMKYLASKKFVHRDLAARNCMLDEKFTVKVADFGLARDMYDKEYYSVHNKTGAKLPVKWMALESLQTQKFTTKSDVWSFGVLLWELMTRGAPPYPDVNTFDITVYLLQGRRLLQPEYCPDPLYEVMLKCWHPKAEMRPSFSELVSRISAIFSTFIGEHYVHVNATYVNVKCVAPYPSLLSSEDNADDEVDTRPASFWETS
Briefly: in vitro kinase assay (homogeneous time-resolved tyrosine kinase assay, METKA). It counts as biochemical. The following applies: recombinant GST-tagged c-Met cytosolic domain, HTRF, 50 μM MgATP; read-out: Biological Activity (METKA IC50) Activity Code. The source says: Recombinant GST-tagged cytosolic domains of human c-Met and other receptor tyrosine kinases including mouse c-Met, human Ron, KDR, IGFR, EGFR, FGFR, Mer, TrkA and Tie2 are used to determine whether the compounds of the instant invention modulate the enzymatic activities of these kinases.
Soluble recombinant GST-tagged cytosolic domains of c-Met and other receptor tyrosine kinases are expressed in a baculovirus system (Pharmingen) according to a protocol recommended by the manufacturer. The c-DNA encoding each cytosolic domain is subcloned into a baculovirus expression vector (pGcGHLT-A, B or C, Pharmingen) containing an in frame 6× histidine tag and a GST tag. The resulting plasmid construct and BaculoGold baculovirus DNA (Pharmingen) are used to co-transfect Sf9 or Sf21 insect cells. After confirming expression of GST-tagged kinase fusion, a high titer recombinant baculovirus stock is produced, expression conditions are optimized, and a scaled up expression of rat KDR-GST fusion is performed. The fusion kinase is then purified from the insect cell lysate by affinity chromatography using glutathione agarose (Pharmingen). The purified protein is dialyzed against 50% glycerol, 2 mM DTT, 50 mM Tris-HCl (pH 7.4) and stored at −20° C. The protein concentrations of the fusion proteins are determined using Coomassie Plus Protein Assay (Pierce) with BSA as standard.
The kinase activities of c-Met and other kinases are measured using a modified version of the homogeneous time-resolved tyrosine kinase assay described by Park et al. (1999, Anal. Biochem. 269:94-104).
The procedure for determining the potency of a compound to inhibit c-Met kinase comprises the following steps: • 1. Prepare 3-fold serial diluted compound solutions in 100% dimethyl sulfoxide (DMSO) at 20× of the desired final concentrations in a 96 well plate. • 2. Prepare a master reaction mix containing 6.67 mM MgCl2, 133.3 mM NaCl, 66.7 mM Tris-HCl (pH 7.4), 0.13 mg/ml BSA, 2.67 mM dithiothreitol, 0.27 nM recombinant c-Met and 666.7 nM biotinylated synthetic peptide substrate (biotin-ahx-EQEDEPEGDYFEWLE-CONH2) (SEQ.ID.NO.:1). • 3. In a black assay plate, add 2.5 μl of compound solution (or DMSO) and 37.5 μl of master reaction mix per well. Initiate the kinase reaction by adding 10 μl of 0.25 mM MgATP per well. Allow the reactions to proceed for 80 min at room temperature. The final conditions for the reaction are 0.2 nM c-Met, 0.5 μM substrate, 50 μM MgATP, […], 100 mM NaCl, 2 mM DTT, 0.1 mg/ml BSA, 50 mM Tris (pH 7.4) and 5% DMSO. • 4. Stop the kinase reaction with 50 μl of Stop/Detection buffer containing 10 mM EDTA, 25 mM HEPES, 0.1% TRITON X-100, 0.126 μg/ml Eu-chelate labeled anti-phosphotyrosine antibody PY20 (cat. #AD0067, PerkinElmer) and 45 μg/ml Streptavidin-allophycocyanin conjugate (cat. #PJ25S, Prozyme). • 5. Read HTRF signals on a Victor reader (PerkinElmer) in HTRF mode after 60 min. • 6. IC50 is determined by fitting the observed relationship between compound concentration and HTRF signal with a 4-parameter logistic equation. Essentially the same procedure was used to determine the potency of compounds to inhibit mouse c-Met, human Ron, KDR, IGFR, EGFR, FGFR, Mer, TrkA and Tie2 except that the concentration of enzyme varied in individual assays (0.2 nM mouse c-Met; 2.5 nM Ron, 8 nM KDR; 0.24 nM IGFR; 0.24 nM EGFR; 0.14 nM FGFR; 16 nM Mer; 8 nM TrkA; 8 nM Tie2).
Background: In TR-FRET formats the signal depends on donor and acceptor labels being close together.
Consider `CCOc1cnc2ccc(CCc3nn(-c4cnn(C)c4)ccc3=O)cc2c1` [Example 58, 3-[2-(3-ethoxyquinolin-6-yl)ethyl]-1-(1-methyl-1H-pyrazol-4-yl)pyridazin-4(1H)-one], for which the IC50 is below 100 nM.

Consider `CCn1cc(-n2ccc(=O)c(COc3ccc4ncc(-c5ccc(C#N)nc5)cc4c3)n2)cn1` [Example 81, 5-(6-{[1-(1-ethyl-1H-pyrazol-4-yl)-4-oxo-1,4-dihydropyridazin-3-yl]methoxy}quinolin-3-yl)pyridine-2-carbonitrile], for which the IC50 is below 100 nM.

As for `CC(Oc1ccc2ncccc2c1)c1nn(-c2cccc(Br)c2)ccc1=O` (single isomer, unassigned) [Example 114, 1-(3-bromophenyl)-3-[1-(quinolin-6-yloxy)ethyl]pyridazin-4(1H)-one], the IC50 is 1000 to 3000 nM.

In the case of `O=c1ccn(-c2ccc(F)c(F)c2)nc1COc1ccc2ncccc2c1` [Example 8, 1-(3,4-difluorophenyl)-3-[(quinolin-6-yloxy)methyl] pyridazin-4(1H)-one], the IC50 is below 100 nM.

With `Cn1cc(-n2ccc(=O)c(COc3ccc4ncsc4c3)n2)cn1` [Example 105, 3-[(1,3-Benzothiazol-6-yloxy)methyl]-1-(1-methyl-1H-pyrazol-4-yl)pyridazin-4(1H)-one], the IC50 was below 100 nM.

Regarding `CCn1cc(-n2ccc(=O)c(COc3ccc4ncc(-c5ccc(C(F)(F)F)cc5)cc4c3)n2)cn1` [Example 89, 1-(1-ethyl-1H-pyrazol-4-yl)-3-[({3-[4-(trifluoromethyl)phenyl]quinolin-6-yl}oxy)methyl]pyridazin-4(1H)-one], the IC50 was below 100 nM.

Take `Cn1cc(-n2ccc(=O)c(COc3ccc4ncc(OCC(C)(C)O)cc4c3)n2)cn1` [Example 62, 3-({[3-(2-Hydroxy-2-methylpropoxy)quinolin-6-yl]oxy}methyl)-1-(1-methyl-1H-pyrazol-4-yl)pyridazin-4(1H)-one]: the IC50 is below 100 nM.

Take `Cn1cc(-n2ccc(=O)c(CCc3ccc(NCCCCO)cc3)n2)cn1` [Example 118, 3-(2-{4-[(4-hydroxybutyl)amino]phenyl}ethyl)-1-(1-methyl-1H-pyrazol-4-yl)pyridazin-4(1H)-one]: the IC50 lay within 100 to 1000 nM.

Consider `CCn1cc(-n2ccc(=O)c(COc3ccc4ncc(OCc5noc(C)n5)cc4c3)n2)cn1` [Example 70, 1-(1-ethyl-1H-pyrazol-4-yl)-3-[({3-[(5-methyl-1,2,4-oxadiazol-3-yl)methoxy]quinolin-6-yl}oxy)methyl]pyridazin-4(1H)-one], for which the IC50 was below 100 nM.

With `COCCOC(=O)Nc1ccc(CCc2nn(-c3cnn(C)c3)ccc2=O)cc1` [Example 120, 2-methoxyethyl (4-{2-[1-(1-methyl-1H-pyrazol-4-yl)-4-oxo-1,4-dihydropyridazin-3-yl]ethyl}phenyl)carbamate], the IC50 fell in the range of 1000 to 3000 nM.

In the case of `COC(=O)c1ccc(CCc2nn(-c3cnn(C)c3)ccc2=O)cc1` [Example 56, methyl 4-{2-[1-(1-methyl-1H-pyrazol-4-yl)-4-oxo-1,4-dihydropyridazin-3-yl]ethyl}benzoate], the IC50 is 1000 to 3000 nM.

Turning to `Cn1cc(-c2cnc3ccc(OCc4nn(-c5cnn(C)c5)ccc4=O)cc3c2)cn1` [Example 75], the IC50 is below 100 nM.

On to `Cn1cc(-n2ccc(=O)c(COc3ccc4ncccc4c3)n2)cn1` [Example 1, 1-(1-Methyl-1H-pyrazol-4-yl)-3-[(quinolin-6-yloxy)methyl]pyridazin-4(1H)-one], for which the IC50 is below 100 nM.

As to `CCc1cnc2ccc(OCc3nn(-c4cnn(C)c4)ccc3=O)cc2c1` [Example 72, 3-{[(3-ethylquinolin-6-yl)oxy]methyl}-1-(1-methyl-1H-pyrazol-4-yl)pyridazin-4(1H)-one], the IC50 is below 100 nM.

Turning to `Cn1cc(-n2ccc(=O)c(COc3ccc4[nH]c(-c5ccccc5)nc4c3)n2)cn1` [Example 19, 1-(1-methyl-1H-pyrazol-4-yl)-3-{[(2-phenyl-1H-benzimidazol-5-yl)oxy]methyl}pyridazin-4(1H)-one], the IC50 was below 100 nM.

On to `CCOC(=O)Nc1ccc(CCc2nn(-c3cnn(C)c3)ccc2=O)cc1` [Example 121, ethyl (4-{2-[1-(1-methyl-1H-pyrazol-4-yl)-4-oxo-1,4-dihydropyridazin-3-yl]ethyl}phenyl)carbamate], for which the IC50 was 1000 to 3000 nM.

`Cn1cc(-n2ccc(=O)c(CCc3ccc(N)cc3)n2)cn1` [Example 117, 3-[2-(4-aminophenyl)ethyl]-1-(1-methyl-1H-pyrazol-4-yl)pyridazin-4(1H)-one]: the half-inhibitory concentration (IC50) lay in the range of 1000 to 3000 nM.

In the case of `Cn1cc(-n2ccc(=O)c(OCc3ccc4ncccc4c3)n2)cn1` [Example 127, 1-(1-Methyl-1H-pyrazol-4-yl)-3-(quinolin-6-ylmethoxy)pyridazin-4(1H)-one], the IC50 is 1000 to 3000 nM.

As for `CC(Cc1nn(-c2cnn(C)c2)ccc1=O)c1ccc2ncccc2c1` (single isomer, unassigned) [Example 126, 1-(1-methyl-1H-pyrazol-4-yl)-3-(2-quinolin-6-ylpropyl)pyridazin-4(1H)-one], the IC50 lay in the range of 100 to 1000 nM.

For the molecule `CCn1cc(-n2ccc(=O)c(COc3ccc4ncc(-c5cnn(CCOC)c5)cc4c3)n2)cn1` [Example 77, 1-(1-ethyl-1H-pyrazol-4-yl)-3-[({3-[1-(2-methoxyethyl)-1H-pyrazol-4-yl]quinolin-6-yl}oxy)methyl]pyridazin-4(1H)-one], the IC50 was below 100 nM.

As to `Cn1cc(-n2ccc(=O)c(COc3ccc4ncc(NC(=O)Nc5cnc6ccc(OCc7nn(-c8cnn(C)c8)ccc7=O)cc6c5)cc4c3)n2)cn1` [Example 111, 1,3-bis(6-{[1-(1-methyl-1H-pyrazol-4-yl)-4-oxo-1,4-dihydropyridazin-3-yl]methoxy}quinolin-3-yl)urea], the IC50 was below 100 nM.

Take `CC(Oc1nn(-c2cnn(C)c2)ccc1=O)c1ccc2ncc(-c3cnn(C)c3)cc2c1` (stereo not drawn) [Example 136, 1-(1-methyl-1H-pyrazol-4-yl)-3-{1-[3-(1-methyl-1H-pyrazol-4-yl)quinolin-6-yl]ethoxy}pyridazin-4(1H)-one]: the IC50 was below 100 nM.

Consider `CCn1cc(-n2ccc(=O)c(COc3ccc4ncccc4c3)n2)cn1` [Example 22, 1-(1-ethyl-1H-pyrazol-4-yl)-3-[(quinolin-6-yloxy)methyl] pyridazin-1(4H)-one], for which the IC50 was below 100 nM.

`COCCOc1cnc2ccc(C(C)Oc3nn(-c4cnn(C)c4)ccc3=O)cc2c1` (single isomer, unassigned) [Example 144, 3-{1-[3-(2-methoxyethoxy)quinolin-6-yl]ethoxy}-1-(1-methyl-1H-pyrazol-4-yl)pyridazin-4(1H)-one]: the IC50 lay within 100 to 1000 nM.

For the molecule `Cn1cc(-n2ccc(=O)c(COc3cc(F)c4ncccc4c3)n2)cn1` [Example 32, 3-{[(8-fluoroquinolin-6-yl)oxy]methyl}-1-(1-methyl-1H-pyrazol-4-yl)pyridazin-4(1H)-one], the IC50 fell in the range of 1000 to 3000 nM.

As for `COCCOc1cnc2ccc(OCc3nn(-c4cc(Cl)cc(C#N)c4)ccc3=O)cc2c1` [Example 29, 3-chloro-5-[3-({[3-(2-methoxyethoxy)quinolin-6-yl]oxy}methyl)-4-oxopyridazin-1(4H)-yl]benzonitrile], the IC50 was below 100 nM.

As to `CCOc1cnc2ccc(OCc3nn(-c4cnn(C)c4)ccc3=O)cc2c1` [Example 23, 3-{[(3-Ethoxyquinolin-6-yl)oxy]methyl}-1-(1-methyl-1H-pyrazol-4-yl)pyridazin-4(1H)-one], the IC50 is below 100 nM.
